Experiment [1] has as its target T1, human 15-PGDH (Homo sapiens, UniProt P15428).
T1 construct: comprising residues 3–256 of the human HPGD gene (GenBank identifier: 1203982); His6 (GHHHHHH, behind the TEV site) (C, cleaved yes); made in house; host or cells: E. coli BL21(DE3)-R3
T1 sequence (P15428 3-256): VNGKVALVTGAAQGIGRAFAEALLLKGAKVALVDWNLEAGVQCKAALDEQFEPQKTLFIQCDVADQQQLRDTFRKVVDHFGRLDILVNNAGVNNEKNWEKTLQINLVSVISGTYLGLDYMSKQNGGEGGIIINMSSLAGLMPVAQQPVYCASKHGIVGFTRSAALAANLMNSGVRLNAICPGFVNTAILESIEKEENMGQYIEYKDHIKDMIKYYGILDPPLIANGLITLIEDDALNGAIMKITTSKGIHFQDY
Nature of the experiment: Substrate (PGE2) and cofactor (NAD+) titrations, mechanism of action, global fitting. The class given is biochemical. As to conditions: for Competitive (CM), fit residual Chi^2 value / Mixed-mode (MM), fit residual Chi^2 value / Noncompetitive (NM), fit residual Chi^2 value / Uncompetitive (UM), fit residual Chi^2 value: global fitting; for Titration of NAD^+ K m / Titration of NAD^+ V max [µmol/(min×mg)] / Titration of NAD^+ k cat/K m[×10^6] / Titration of NAD^+ k cat[1/sec]: 30 µM PGE2. Here is the method:
Kinetic studies were performed in 100 mM Tris buffer pH 8.0, containing 0.01% Tween-20 and 10 nM 15-PGDH enzyme. […] All inhibitor compounds were dissolved in 10% (v/v) DMSO at varying concentrations from which they were applied at 1∶5 ratio (resulting in a final concentration of 2% (v/v) DMSO in all assays). For each experiment an aliquot of purified enzyme was thawed freshly and pre-diluted to 10 µM in buffer I (5 mM Tris/HCl, pH 8.0, 150 mM NaCl, 0.01% Tween-20). All experiments were performed in white 384-well PCR microplates (Bio-Rad Laboratories, Inc.) in final assay volumes of 20 µL. Twelve-point compound titrations were set up from serially diluted stock solutions in 10% (v/v) DMSO. […] The initial rates recorded in compound titrations were plotted against -log[compound], and non-linear regression (Levenberg-Marquardt) fitting of the dose-response curve to the Hill equation [47] was performed to derive the IC50, using PRISM 5.0 (GraphPad Software, Inc.). For substrate/cofactor titrations, curves with initial rates plotted against the concentration of substrate or cofactor were fitted to the Michaelis-Menten equation, to derive maximal activities, V max, and Michaelis constants, K m. Fitting qualities were judged from the goodness of fit (R^2>0.98).

Experiment [2] concerns the target T1, human 15-PGDH. Nature of the experiment: Differential scanning fluorimetry (DSF), thermal stabilization. The experiment is classed as binding. (In general: Differential scanning fluorimetry follows unfolding on heating by fluorescence.)
Experiment [3] has as its target T2, ALDH1A1 (Homo sapiens, UniProt P00352).
T2 sequence (P00352 1-501): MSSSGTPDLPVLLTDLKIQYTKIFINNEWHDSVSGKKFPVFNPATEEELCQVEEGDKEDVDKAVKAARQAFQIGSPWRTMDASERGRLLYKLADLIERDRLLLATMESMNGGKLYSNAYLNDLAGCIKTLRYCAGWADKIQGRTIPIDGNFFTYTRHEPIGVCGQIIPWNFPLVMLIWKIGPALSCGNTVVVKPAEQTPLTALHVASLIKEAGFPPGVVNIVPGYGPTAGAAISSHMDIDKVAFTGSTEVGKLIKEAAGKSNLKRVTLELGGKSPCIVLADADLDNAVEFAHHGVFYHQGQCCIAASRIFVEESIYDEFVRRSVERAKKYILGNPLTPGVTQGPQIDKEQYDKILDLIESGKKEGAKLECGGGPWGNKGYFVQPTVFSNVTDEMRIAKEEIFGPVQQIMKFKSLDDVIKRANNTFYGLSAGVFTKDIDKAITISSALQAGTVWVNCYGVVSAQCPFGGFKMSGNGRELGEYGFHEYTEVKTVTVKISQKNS
As to the kind of experiment: Selectivity screen, aldehyde dehydrogenase 1 (PubChem Assay ID 1030). The class given is biochemical.
Experimental: The list also includes two SDR enzymes, hydroxyacyl dehydrogenase (HADH2, also known as type-10 hydroxysteroid dehydrogenase, HSD17β10; PubChem Assay ID 886) and type-4 hydroxysteroid dehydrogenase (HSD17β4; PubChem Assay ID 893), and a medium-chain dehydrogenase/reductase (MDR), aldehyde dehydrogenase 1 (ALDH1A1; PubChem Assay ID 1030), each of which was tested using a similar experimental protocol to that used for 15-PGDH.

Experiment [4] concerns recombinant human placental 15-PGDH. As to conditions: cited from earlier work; for potency as inhibitor of 15-PGDH: in words ref 22.

The values that follow come from PMC2970562, “High-Affinity Inhibitors of Human NAD^+-Dependent 15-Hydroxyprostaglandin Dehydrogenase: Mechanisms of Inhibition and Structure-Activity Relationships” (PLoS ONE, 2010).

SMILES strings stand for the structures.

As to `N#Cc1ccccc1CSc1nc2cc(Br)c[nH]c-2n1` [Compound 61], in experiment [1] (NAD^+ titration), the “Sum-of-squares F-test p, UM vs. MM” value is listed as “UM vs. MM: p = 0.1058”; the “Competitive (CM), fit residual Chi^2 value” was 0.9507; the “Mixed-mode (MM), fit residual Chi^2 value” is 0.9841; the “Noncompetitive (NM), fit residual Chi^2 value” came out at 0.9834. Further, the “Uncompetitive (UM), fit residual Chi^2 value” in experiment [1] (NAD^+ titration) is on record as 0.9837. Also, in experiment [1] (PGE2 titration), the “Sum-of-squares F-test p, CM vs. MM” value was “CM vs. MM:p = 0.0001”; the “Competitive (CM), fit residual Chi^2 value” is 0.9845; the “Mixed-mode (MM), fit residual Chi^2 value” is 0.9866; the “Noncompetitive (NM), fit residual Chi^2 value” is 0.9800. Besides, the “Uncompetitive (UM), fit residual Chi^2 value” in experiment [1] (PGE2 titration) was 0.9742. The “effect on the V max” value in experiment [1] (PGE2 titration, in words) is “almost no effect”. Further, in experiment [1] (PGE2 titration, inhibitor 50 nM), the “increase in the K m” value was 3 fold. For the same compound, the “Preferred mode of inhibition” value in experiment [1] (PGE2 titration, rejection threshold p = 0.05) is “MM (MM, mixed-mode inhibition)”. Also, in experiment [1] (in words), the “mode of inhibition with respect to the cofactor NAD+” value is “uncompetitive” and the “mode of inhibition with respect to the substrate PGE2” value is “competitive inhibition”. Also, in experiment [1] (inhibitor 10.0 nM), the “Titration of PGE2 K m” value was 7.5 ± 0.5 µM, the “Titration of PGE2 V max[µmol/(min×mg)]” value amounted to 29.0 µmol/min/mg, the “Titration of PGE2 k cat/K m[×10^6]” value is reported as 1.8 ×10^6 and the “Titration of NAD^+ K m” value is 17.0 ± 0.8 µM. In addition, in experiment [1] (inhibitor 10.0 nM), the “Titration of NAD^+ V max [µmol/(min×mg)]” value came to 21.1 µmol/min/mg, the “Titration of NAD^+ k cat/K m[×10^6]” value is 0.6 ×10^6 and the “Titration of NAD^+ k cat[1/sec]” value worked out at 10.3 ± 0.1 s⁻¹. In experiment [1] (inhibitor 50.0 nM), the “Titration of PGE2 K m” value worked out at 13.5 ± 1.3 µM, the “Titration of PGE2 V max[µmol/(min×mg)]” value worked out at 25.6 µmol/min/mg, the “Titration of PGE2 k cat/K m[×10^6]” value was 0.9 ×10^6 and the “Titration of PGE2 k cat[1/sec]” value came to 12.4 ± 0.3 s⁻¹. Also, in experiment [1] (inhibitor 50.0 nM), the “Titration of NAD^+ K m” value came to 11.1 ± 1.2 µM, the “Titration of NAD^+ V max [µmol/(min×mg)]” value came out at 10.2 µmol/min/mg, the “Titration of NAD^+ k cat/K m[×10^6]” value is 0.4 ×10^6 and the “Titration of NAD^+ k cat[1/sec]” value amounted to 5.0 ± 0.1 s⁻¹. Besides, in experiment [2], the “ΔTm in the presence of NAD+” value is 12.2±0.1 °C and the “ΔTm in the presence of NADH” value worked out at 2.9±0.5 °C. Also, the “∆Tm [°C] NAD+” value in experiment [2] (with 200 µM NAD+, 1 µM protein, compound 50 or 250 µM, N/A = no unfolding transition observed in DSF) came out at 12.2 °C. Further, the “∆Tm [°C] NADH” value in experiment [2] (with 200 µM NADH, 1 µM protein, compound 50 or 250 µM, N/A = no unfolding transition observed in DSF) was 2.9 °C. Moreover, in experiment [2] (without cofactor, 1 µM protein, compound 50 or 250 µM, N/A = no unfolding transition observed in DSF), the “∆Tm [°C] apo” value is -1.2 °C. The “response against ALDH1A1” value in experiment [3] (in words) is given as “flat response”. The IC50 in experiment [3] (top concentration 57.5 µM, PubChem Assay ID 1030, read-out: IC50/nM ALDH1A1) was > 57500 nM.
With `CC1(COc2ccc(CC3SC(=O)NC3=O)cc2)CCCCC1` (stereo not drawn) [Ciglitazone], the IC50 in experiment [4] (recombinant human placental 15-PGDH ref 22) was 2700 nM.
By Ki is commonly meant a measure of affinity in units of concentration, obtained from inhibition or displacement. Regarding `CCOC(=O)c1ccc(N=Nc2ccc(O)c(CC(=O)O)c2)cc1` [CAY10397], in experiment [4] (human 15-PGDH ref 24), the Ki is 110 nM.
On to `COc1ccc2c(c1)c(CC(=O)O)c(C)n2C(=O)c1ccc(Cl)cc1` [indomethacin], for which the “potency as inhibitor of 15-PGDH” value in experiment [4] is recorded as “micromolar potencies”.
For the compound `CC1=C(CC(=O)O)c2cc(F)ccc2/C1=C\c1ccc([S+](C)[O-])cc1` (stereo not drawn) [sulindac], the “potency as inhibitor of 15-PGDH” value in experiment [4] is reported as “micromolar potencies”.
In the case of `O=C(O)c1cccnc1Nc1cccc(C(F)(F)F)c1` [niflumic acid], the “potency as inhibitor of 15-PGDH” value in experiment [4] is “micromolar potencies”.
